From the NIST ThermoML archive (doi:10.1021/je400917j)
“And” between values parts separate entries of the source, which are not always exact repeats. Identical values can stand only once.

Experiments:
[1] = 101 kPa, Liquid; for mass density: Vibrating tube method
[2] = xn = mol fraction of the nth substance listed; conditions: 101 kPa, Liquid; for mass density: Vibrating tube method

CCCCCC(C)O (stereo not drawn) [2-heptanol]
[1]
Conditions | mass density [kg/m3] | viscosity [mPa·s]
298.15 K | 813.2 | 5.3
303.15 K | 809.5 | 4.48
308.15 K | 805.7 | 3.68
313.15 K | 801.5 | 2.96

CCCCC(C)O (stereo not drawn) [2-hexanol]
[1]
Conditions | mass density [kg/m3] | viscosity [mPa·s]
298.15 K | 810.1 | 4.1
303.15 K | 806.1 | 3.41
308.15 K | 802.1 | 2.82
313.15 K | 798 | 2.22

CC(=O)N(C)C [N,N-dimethylethanamide]
[1]
Conditions | mass density [kg/m3] | viscosity
298.15 K | 936.5 | 0.94 mPa·s
303.15 K | 932 | 0.87 mPa·s
308.15 K | 927.8 | 0.82 mPa·s and 0.8 mPa·s
313.15 K | 923.5 | 0.75 mPa·s

CC(=O)N(C)C [N,N-dimethylethanamide] + CCCC(C)O
[2], x1 = 1
Conditions | mass density [kg/m3] | viscosity [mPa·s]
298.15 K | 936.5 | 0.94
303.15 K | 932 | 0.87
308.15 K | 927.8 | 0.8
313.15 K | 923.5 | 0.75

CC(=O)N(C)C [N,N-dimethylethanamide] + CCCCC(C)O
[2], x1 = 1
Conditions | mass density [kg/m3] | viscosity [mPa·s]
298.15 K | 936.5 | 0.94
303.15 K | 932 | 0.87
308.15 K | 927.8 | 0.8
313.15 K | 923.5 | 0.75

CC(=O)N(C)C [N,N-dimethylethanamide] + CCCCCC(C)O
[2], x1 = 1
Conditions | mass density [kg/m3] | viscosity [mPa·s]
298.15 K | 936.5 | 0.94
303.15 K | 932 | 0.87
308.15 K | 927.8 | 0.8
313.15 K | 923.5 | 0.75

CCC(C)O (stereo not drawn) [butan-2-ol]
[1]
Conditions | mass density [kg/m3] | viscosity [mPa·s]
298.15 K | 803 | 3.1
303.15 K | 798.9 | 2.53
308.15 K | 795 | 2.13
313.15 K | 790.2 | 1.8

CCC(C)O (stereo not drawn) [butan-2-ol] + CC(=O)N(C)C
[2], x2 = 0
Conditions | mass density [kg/m3] | viscosity [mPa·s]
298.15 K | 803 | 3.1
303.15 K | 798.9 | 2.53
308.15 K | 795 | 2.13
313.15 K | 790.2 | 1.8

CCCC(C)O (stereo not drawn) [pentan-2-ol]
[1]
Conditions | mass density [kg/m3] | viscosity [mPa·s]
298.15 K | 805.4 | 3.5
303.15 K | 800.9 | 2.83
308.15 K | 796.9 | 2.35
313.15 K | 792.6 | 1.98

CC(C)O [propan-2-ol]
[1]
Conditions | mass density [kg/m3] | viscosity [mPa·s]
298.15 K | 781.1 | 2.05
303.15 K | 776.8 | 1.79
308.15 K | 772.4 | 1.56
313.15 K | 767.8 | 1.35

CC(C)O [propan-2-ol] + CC(=O)N(C)C
[2], x2 = 0
Conditions | mass density [kg/m3] | viscosity [mPa·s]
298.15 K | 781.1 | 2.05
303.15 K | 776.8 | 1.79
308.15 K | 772.4 | 1.56
313.15 K | 767.8 | 1.35
